According to publication PMC4501006, “Preliminary Characterization and In Vivo Studies of Structurally Identical ^18F- and ^125I-Labeled Benzyloxybenzenes for PET/SPECT Imaging of β-Amyloid Plaques” (Scientific Reports, 2015):

Tests used:
[1] = Partition coefficient determination (log D); assay type: physicochemical
Protocol: An ideal Aβ imaging probe would combine a high binding affinity to Aβ plaques and excellent pharmacokinetics with high initial brain uptake and rapid washout from normal brain regions. Thus, the partition coefficients of these four radiolabeled ligands were determined to estimate their ability to penetrate the BBB.

[2] = In vivo biodistribution in normal ICR mice; conditions: i.v.

logD [1]: 3.84 ± 0.07
brain2 min/brain60 min ratio [2]: 1.6
Biodistribution of radioactivity, blood ([2]; 2 min): 7.53 ± 0.80 % injected dose per gram
Biodistribution of radioactivity, bone ([2]; 2 min): 2.55 ± 0.29 % injected dose per gram
Biodistribution of radioactivity, brain ([2]; 2 min): > 5 % injected dose per gram
Biodistribution of radioactivity, heart ([2]; 2 min): 9.11 ± 1.07 % injected dose per gram
Biodistribution of radioactivity, intestine ([2]; 2 min): 7.72 ± 0.54 % injected dose per organ
Biodistribution of radioactivity, kidney ([2]; 2 min): 11.63 ± 0.86 % injected dose per gram
Biodistribution of radioactivity, liver ([2]; 2 min): 13.20 ± 1.45 % injected dose per gram
Biodistribution of radioactivity, lung ([2]; 2 min): 9.17 ± 1.10 % injected dose per gram
Biodistribution of radioactivity, muscle ([2]; 2 min): 5.38 ± 0.47 % injected dose per gram
Biodistribution of radioactivity, pancreas ([2]; 2 min): 8.75 ± 0.33 % injected dose per gram
Biodistribution of radioactivity, spleen ([2]; 2 min): 4.98 ± 0.32 % injected dose per gram
Biodistribution of radioactivity, stomach ([2]; 2 min): 1.70 ± 0.08 % injected dose per organ
Biodistribution of radioactivity, brain ([2]; 2 min, listed as [18F]12a): 6.76 ± 0.41 % injected dose per gram
Biodistribution of radioactivity, blood ([2]; 10 min): 4.55 ± 0.36 % injected dose per gram
Biodistribution of radioactivity, bone ([2]; 10 min): 2.13 ± 0.27 % injected dose per gram
Biodistribution of radioactivity, brain ([2]; 10 min): 5.73 ± 0.44 % injected dose per gram
Biodistribution of radioactivity, heart ([2]; 10 min): 4.40 ± 0.36 % injected dose per gram
Biodistribution of radioactivity, intestine ([2]; 10 min): 6.94 ± 0.53 % injected dose per organ
Biodistribution of radioactivity, kidney ([2]; 10 min): 6.19 ± 0.46 % injected dose per gram
Biodistribution of radioactivity, liver ([2]; 10 min): 4.74 ± 0.36 % injected dose per gram
Biodistribution of radioactivity, lung ([2]; 10 min): 4.91 ± 0.60 % injected dose per gram
Biodistribution of radioactivity, muscle ([2]; 10 min): 3.92 ± 0.41 % injected dose per gram
Biodistribution of radioactivity, pancreas ([2]; 10 min): 3.96 ± 0.27 % injected dose per gram
Biodistribution of radioactivity, spleen ([2]; 10 min): 3.55 ± 0.26 % injected dose per gram
Biodistribution of radioactivity, stomach ([2]; 10 min): 1.54 ± 0.32 % injected dose per organ
Biodistribution of radioactivity, blood ([2]; 30 min): 5.91 ± 0.33 % injected dose per gram
Biodistribution of radioactivity, bone ([2]; 30 min): 3.31 ± 0.21 % injected dose per gram
Biodistribution of radioactivity, brain ([2]; 30 min): 5.02 ± 0.32 % injected dose per gram
Biodistribution of radioactivity, heart ([2]; 30 min): 5.41 ± 0.36 % injected dose per gram
Biodistribution of radioactivity, intestine ([2]; 30 min): 8.09 ± 0.43 % injected dose per organ
Biodistribution of radioactivity, kidney ([2]; 30 min): 6.19 ± 0.37 % injected dose per gram
Biodistribution of radioactivity, liver ([2]; 30 min): 4.84 ± 0.28 % injected dose per gram
Biodistribution of radioactivity, lung ([2]; 30 min): 5.34 ± 0.31 % injected dose per gram
Biodistribution of radioactivity, muscle ([2]; 30 min): 4.71 ± 0.50 % injected dose per gram
Biodistribution of radioactivity, pancreas ([2]; 30 min): 4.55 ± 0.36 % injected dose per gram
Biodistribution of radioactivity, spleen ([2]; 30 min): 4.29 ± 0.36 % injected dose per gram
Biodistribution of radioactivity, stomach ([2]; 30 min): 2.09 ± 0.32 % injected dose per organ
Biodistribution of radioactivity, blood ([2]; 60 min): 5.87 ± 0.19 % injected dose per gram
Biodistribution of radioactivity, bone ([2]; 60 min): 3.51 ± 0.78 % injected dose per gram
Biodistribution of radioactivity, brain ([2]; 60 min): 4.26 % injected dose per gram
Biodistribution of radioactivity, heart ([2]; 60 min): 4.76 ± 0.40 % injected dose per gram
Biodistribution of radioactivity, intestine ([2]; 60 min): 8.50 ± 1.23 % injected dose per organ
Biodistribution of radioactivity, kidney ([2]; 60 min): 5.48 ± 0.41 % injected dose per gram
Biodistribution of radioactivity, liver ([2]; 60 min): 4.64 ± 0.21 % injected dose per gram
Biodistribution of radioactivity, lung ([2]; 60 min): 5.19 ± 0.36 % injected dose per gram
Biodistribution of radioactivity, muscle ([2]; 60 min): 4.51 ± 0.49 % injected dose per gram
Biodistribution of radioactivity, pancreas ([2]; 60 min): 3.95 ± 0.25 % injected dose per gram
Biodistribution of radioactivity, spleen ([2]; 60 min): 3.87 ± 0.34 % injected dose per gram
Biodistribution of radioactivity, stomach ([2]; 60 min): 1.70 ± 0.29 % injected dose per organ
Biodistribution of radioactivity, brain ([2]; 60 min, listed as [18F]12a): 4.26 ± 0.18 % injected dose per gram
Structure (SMILES): [18F]CCOc1ccc(COc2ccc(I)cc2)cc1 [[^18F]12a]
